Laboratory results from ChEMBL document CHEMBL3046174, “Docking and CoMFA study on novel human CCR5 receptor antagonists” (Med Chem Res, 2013).

Target: C-C chemokine receptor type 5 (Homo sapiens, UniProt P51681)
Assay: Antagonist activity at Homo sapiens (human) CCR5 receptor

Chain of C-C chemokine receptor type 5 (P51681 whole entry): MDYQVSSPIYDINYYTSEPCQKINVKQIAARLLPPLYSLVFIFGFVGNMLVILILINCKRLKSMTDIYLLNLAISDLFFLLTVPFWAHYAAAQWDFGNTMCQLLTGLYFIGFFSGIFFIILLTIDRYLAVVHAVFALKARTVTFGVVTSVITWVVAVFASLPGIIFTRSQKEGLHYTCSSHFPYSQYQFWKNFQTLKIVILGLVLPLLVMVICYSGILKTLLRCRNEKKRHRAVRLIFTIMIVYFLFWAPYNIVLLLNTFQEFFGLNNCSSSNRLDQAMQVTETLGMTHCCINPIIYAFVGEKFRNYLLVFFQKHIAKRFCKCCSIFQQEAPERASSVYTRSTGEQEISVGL

Row | SMILES | IC50 [nM]
1 | O=C(NCC1(O)CCC(Cc2cc(Br)ccc2OCc2ccc(Cl)cc2)CC1)Nc1c(Cl)cc(Cl)cc1Cl (stereo not drawn) | 450
2 | C/C(=N\NC(=N)N)c1cc(Br)ccc1OCc1ccc(C#N)cc1 | 92.9
3 | CC/C(=N\NC(=N)N)c1cc(Br)ccc1OCc1ccc(Cl)cc1 | 400
4 | CN(C)c1cc(Br)ccc1OCc1ccc(Cl)cc1 | 600
5 | O=C(NCC1(O)CCC(Cc2cc(Br)ccc2OCc2ccc(Cl)cc2)CC1)Nc1c(F)cccc1F (stereo not drawn) | 320
6 | O=C(NCC1(O)CCC(Cc2cc(Br)ccc2OCc2ccc(Cl)cc2)CC1)Nc1c(Cl)cccc1Cl (stereo not drawn) | 57
7 | Cc1cc(Br)cc(C)c1NC(=O)NCC1(O)CCC(Cc2cc(Br)ccc2OCc2ccc(Cl)cc2)CC1 (stereo not drawn) | 170
8 | Cc1cc(C)c(NC(=O)NCC2(O)CCC(Cc3cc(Br)ccc3OCc3ccc(Cl)cc3)CC2)c(C)c1 (stereo not drawn) | 100
9 | CCc1cccc(CC)c1NC(=O)NCC1(O)CCC(Cc2cc(Br)ccc2OCc2ccc(Cl)cc2)CC1 (stereo not drawn) | 11
10 | N=C(N)N/N=C/c1cc(Br)ccc1OCc1ccc(Cl)cc1 | 600

Results, then the compound that gave them:

Row | IC50 [nM] | SMILES
11 | 1000 | Brc1ccc(COc2ccc(Br)cc2N2CCOCC2)cc1
12 | 210 | CC1CCN(CC2(O)CCN(Cc3cc(Br)ccc3OCc3ccc(Cl)cc3)CC2)CC1
13 | 839 | N=C(N)N/N=C/c1cc(Br)ccc1OCc1cccc(Cl)c1
14 | 1500 | Cc1ccc(NC(=O)NCC2(O)CCC(Cc3cc(Br)ccc3OCc3ccc(Cl)cc3)CC2)cc1 (stereo not drawn)
15 | 47 | Cc1cccc(C)c1NC(=O)NCC1(O)CCC(Cc2cc(Br)ccc2OCc2ccc(Cl)cc2)CC1 (stereo not drawn)
16 | 35 | CC(C)c1cccc(C(C)C)c1NC(=O)NCC1(O)CCC(Cc2cc(Br)ccc2OCc2ccc(Cl)cc2)CC1 (stereo not drawn)
17 | 3700 | N=C(N)N/N=C/c1cc(Br)ccc1OCc1ccc(F)c(F)c1
18 | 1400 | CCN(CC)c1cc(Br)ccc1OCc1ccc(Cl)cc1
